Reference: PubChem BioAssay AID1259407 (Chemical Carcinogenesis Research Information System (CCRIS), 2018)
Active and inactive are the calls of the source. How the calls were made is not given here.

Tested on: CCRIS mutagenicity, Ames/micronucleus/aberration tests
Assay: CCRIS mutagenicity studies
[1] = Test System: AMES SALMONELLA TYPHIMURIUM, Strain/Indicator: TA98, Metabolic Activation: NONE, Method: PREINCUBATION
[2] = Test System: AMES SALMONELLA TYPHIMURIUM, Strain/Indicator: TA98, Metabolic Activation: NONE, Method: STANDARD PLATE
[3] = Test System: AMES SALMONELLA TYPHIMURIUM, Strain/Indicator: TA98, Metabolic Activation: RAT, LIVER, S-9, AROCLOR 1254, Method: STANDARD PLATE
[4] = Test System: AMES SALMONELLA TYPHIMURIUM, Strain/Indicator: TA100, Metabolic Activation: NONE, Method: PREINCUBATION
[5] = Test System: AMES SALMONELLA TYPHIMURIUM, Strain/Indicator: TA100, Metabolic Activation: NONE, Method: STANDARD PLATE
[6] = Test System: AMES SALMONELLA TYPHIMURIUM, Strain/Indicator: TA100, Metabolic Activation: RAT, LIVER, S-9, AROCLOR 1254, Method: STANDARD PLATE
[7] = Test System: AMES SALMONELLA TYPHIMURIUM, Strain/Indicator: TA1535, Metabolic Activation: NONE, Method: STANDARD PLATE
[8] = Test System: AMES SALMONELLA TYPHIMURIUM, Strain/Indicator: TA1535, Metabolic Activation: RAT, LIVER, S-9, AROCLOR 1254, Method: STANDARD PLATE
[9] = Test System: AMES SALMONELLA TYPHIMURIUM, Strain/Indicator: TA1537, Metabolic Activation: NONE, Method: STANDARD PLATE
[10] = Test System: AMES SALMONELLA TYPHIMURIUM, Strain/Indicator: TA1537, Metabolic Activation: RAT, LIVER, S-9, AROCLOR 1254, Method: STANDARD PLATE
[11] = Test System: AMES SALMONELLA TYPHIMURIUM, Strain/Indicator: TA1538, Metabolic Activation: NONE, Method: STANDARD PLATE
[12] = Test System: AMES SALMONELLA TYPHIMURIUM, Strain/Indicator: TA1538, Metabolic Activation: RAT, LIVER, S-9, AROCLOR 1254, Method: STANDARD PLATE
[13] = Test System: AMES SALMONELLA TYPHIMURIUM, Strain/Indicator: TA100, Metabolic Activation: RAT, LIVER, S-9, AROCLOR 1254, Method: PREINCUBATION

Measured: mutagenic call

COCOC
inactive: Test System: Mouse lymphoma, Strain/Indicator: L5178Y (tk+/tk-), Metabolic Activation: None, Method: Suspension/plate inactive; negative | Test System: Mouse lymphoma, Strain/Indicator: L5178Y (tk+/tk-), Metabolic Activation: Rat, Liver, S-9, Aroclor 1254, Method: Suspension/plate inactive; negative

CCC[C@@H]1C[C@@H](C(=O)N[C@@H]([C@H]2O[C@H](SC)[C@H](O)[C@@H](O)[C@H]2O)[C@@H](C)O)N(C)C1
active: End Point: AMES SALMONELLA TYPHIMURIUM, Test System: TA98, Metabolic Activation: NONE, Method: STANDARD PLATE active; positive | End Point: AMES SALMONELLA TYPHIMURIUM, Test System: TA100, Metabolic Activation: NONE, Method: STANDARD PLATE active; positive

O=C(O)/C=C\C(=O)O
inactive: Test System: AMES SALMONELLA TYPHIMURIUM, Strain/Indicator: TA97, Metabolic Activation: NONE, Method: PREINCUBATION inactive; negative | Test System: AMES SALMONELLA TYPHIMURIUM, Strain/Indicator: TA97, Metabolic Activation: RAT, LIVER, S-9, PHENOBARBITAL AND 5,6-BENZOFLAVONE, Method: PREINCUBATION inactive; negative | [1] inactive; negative | [2] inactive; negative | [3] inactive; negative | Test System: AMES SALMONELLA TYPHIMURIUM, Strain/Indicator: TA98, Metabolic Activation: RAT, LIVER, S-9, PHENOBARBITAL AND 5,6-BENZOFLAVONE, Method: PREINCUBATION inactive; negative | [4] inactive; negative | [5] inactive; negative | [6] inactive; negative | Test System: AMES SALMONELLA TYPHIMURIUM, Strain/Indicator: TA100, Metabolic Activation: RAT, LIVER, S-9, PHENOBARBITAL AND 5,6-BENZOFLAVONE, Method: PREINCUBATION inactive; negative | Test System: AMES SALMONELLA TYPHIMURIUM, Strain/Indicator: TA102, Metabolic Activation: NONE, Method: PREINCUBATION inactive; negative | Test System: AMES SALMONELLA TYPHIMURIUM, Strain/Indicator: TA102, Metabolic Activation: RAT, LIVER, S-9, PHENOBARBITAL AND 5,6-BENZOFLAVONE, Method: PREINCUBATION inactive; negative | Test System: AMES SALMONELLA TYPHIMURIUM, Strain/Indicator: TA104, Metabolic Activation: NONE, Method: PREINCUBATION inactive; negative | Test System: AMES SALMONELLA TYPHIMURIUM, Strain/Indicator: TA104, Metabolic Activation: RAT, LIVER, S-9, PHENOBARBITAL AND 5,6-BENZOFLAVONE, Method: PREINCUBATION inactive; negative | [7] inactive; negative | [8] inactive; negative | [9] inactive; negative | [10] inactive; negative | [11] inactive; negative | [12] inactive; negative

C/C=C\C(=O)O[C@@H]1C[C@H]2O[C@@H]3C=C(C)C(=O)C[C@]3(C)[C@]1(C)[C@]21CO1
inactive: [1] inactive; negative | Test System: AMES SALMONELLA TYPHIMURIUM, Strain/Indicator: TA98, Metabolic Activation: RAT, LIVER, S-9, AROCLOR 1254, Method: PREINCUBATION inactive; negative | [4] inactive; negative | [13] inactive; negative

CC1(C)[C@H](/C=C(\Cl)C(F)(F)F)[C@@H]1C(=O)O[C@@H](C#N)c1cccc(Oc2ccccc2)c1
active: End Point: IN VIVO CHROMOSOMAL ABERRATIONS, Test System: BONE MARROW, Species: RAT, Strain/Sex: WISTAR/FEMALE, Route: IP active; positive (structural changes) | End Point: IN VIVO MICRONUCLEUS, Test System: BONE MARROW POLYCHROMATIC ERYTHROCYTES, Species: RAT, Strain/Sex: WISTAR/FEMALE, Route: ORAL (GAVAGE) active; positive | End Point: IN VIVO MICRONUCLEUS, Test System: BONE MARROW, Species: RAT, Strain/Sex: WISTAR/FEMALE, Route: IP active; positive | End Point: IN VIVO MICRONUCLEUS, Test System: POLYCHROMATIC ERYTHROCYTES FROM COLONIC CRYPT EPITHELIAL CELLS, Species: RAT, Strain/Sex: WISTAR/FEMALE, Route: ORAL (GAVAGE) active; positive

N=c1c2ncn(C(c3ccccc3)(c3ccccc3)c3ccccc3)c2ncn1O
inactive: Test System: AMES SALMONELLA TYPHIMURIUM, Strain/Indicator: TA97, Metabolic Activation: NONE, Method: STANDARD PLATE inactive; negative | Test System: AMES SALMONELLA TYPHIMURIUM, Strain/Indicator: TA97, Metabolic Activation: RAT, LIVER, S-9, AROCLOR 1254, Method: STANDARD PLATE inactive; negative | [2] inactive; negative | [5] inactive; negative | [6] inactive; negative
active: [3] active; positive

C=CCS(=O)(=O)CC=C
inactive: End Point: In vivo micronucleus, Test System: Peripheral blood reticulocytes, Species: Mouse, Strain/Sex: F1 (Big Blue x A/J) transgenic/Male and female, Route: Oral inactive; negative

Cc1cc(=O)oc2c3c(ccc12)C1(C)OOC1(C)O3 (stereo unspecified)
active: [4] active; positive

N#CC1=C(C#N)SCCS1
inactive: [2] inactive; negative | [3] inactive; negative | [5] inactive; negative | [6] inactive; negative | [7] inactive; negative | [8] inactive; negative | [9] inactive; negative | [10] inactive; negative | [11] inactive; negative | [12] inactive; negative

O=c1c(Cl)c(Cl)cnn1S(=O)(=O)c1ccc(Cl)cc1
inactive: [2] inactive; negative | [3] inactive; negative | [5] inactive; negative | [6] inactive; negative | [7] inactive; negative | [8] inactive; negative | [9] inactive; negative | [10] inactive; negative

NC(=S)NNC(N)=S
inactive: End Point: IN VITRO CHROMOSOMAL ABERRATIONS, Test System: CHINESE HAMSTER OVARY CELLS, Metabolic Activation: RAT, LIVER, S-9, AROCLOR 1254 inactive; negative

N#Cc1ccc(CO)cc1
inactive: [5] inactive; negative

O=S(=O)(O)NC1CCCCC1
inactive: Test System: CHINESE HAMSTER OVARY, Strain/Indicator: CHO-K1-BH4 (HGPRT), Metabolic Activation: NONE, Method: STANDARD PLATE inactive; negative | Test System: CHINESE HAMSTER OVARY, Strain/Indicator: CHO-K1-BH4 (HGPRT), Metabolic Activation: RAT, LIVER, S-9, Method: STANDARD PLATE inactive; negative | Test System: UDS RODENT HEPATOCYTES, Strain/Indicator: THY INCORP (NON-S-PHASE), Metabolic Activation: NONE, Method: AUTORADIOGRAPHY inactive; negative

C1=COc2c(c3cc4ccccc4cc3c3ccccc23)C=C1
active: [13] active; positive

Cn1sc(Cl)cc1=O (tested in a mixture with another compound)
active: [5] active; positive | [6] active; positive
